Laboratory results as given in patent US20160177395A1, “BIOMARKERS FOR THE PREDICTION OF RENAL INJURY” (priority 2007, published 2016).
Where “and” joins values, the source holds several entries; their conditions need not be identical. Equal values may be shown once. Entries after “also recorded” stand apart in the source; their conditions may differ.

Experiments:
[1] = test system: Sprague-Dawley Crl:CD(SD) rats; test: Rat toxicity study, single, 5-day and 28-day treatment (clinical observation, clinical pathology, autopsy, organ weights, histopathology);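 further: control rats received saline intraperitoneally, and the organs examined were adrenals, brain, kidneys, liver, spleen and thymus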
Procedure: Control animals were treated intraperitoneal with saline.
Randomization and group allocation: prior to treatment, the animals were assigned to the experimental groups based on their body weight. Mean body weight of each group at randomization was not deviate±20% of the mean population weight. Males and females were randomized separately. For the randomization, a computer program was used.
The day before autopsy, urinalysis was performed and blood samples were taken for hematology and clinical chemistry examinations.
On the day of autopsy the animals were anaesthetized with isoflurane, blood was collected for PBMC isolation then subjected to autopsy. Tissues and organs (adrenals, brain, kidneys, liver, spleen and thymus) were weighed and subjected to gross pathological and histopathological examinations.

[2] = test system: kidney tissues of treated or untreated rats; test: Real-time qRT-PCR of signature amplicons, validation stage, labeled and un-labeled samples (Table 23); conditions: listed as CadCl; for H31883_DB71_seg13 normalized qRT-PCR result / MUSCYCG1R_DB81_seg19-20 normalized qRT-PCR result / W41270_DB81_seg11 normalized qRT-PCR result: labeled sample, one line per animal; for H31883_DB71_seg13 normalized qRT-PCR expression (Cyclin-G1 (CCNG1) transcript) / MUSCYCG1R_DB81_seg19-20 normalized qRT-PCR expression / W41270_DB81_seg11 normalized qRT-PCR expression (tumor necrosis factor receptor superfamily, member 12a transcript): labeled samples
Method in brief: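 Each of four signature genes measured as wild-type and alternative-splice amplicons by qRT-PCR in treated or untreated rat kidney. Normalization was two-step: housekeeping-gene factor, then inter-plate correction from shared samples on a shuffled control plate; final values rescaled for display.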

kidney tissues = test: Random-Forest classifier for renal toxicity, discovery stage (Day-5 and Day-1 signatures); set-up: species or system rat; conditions: Day-5 animals, qRT-PCR data, signature of Table 13
Source text: Finding signatures using machine learning algorithms requires two steps—selecting a limited set of features to be used for the signature, and building a classifier using these features. The feature selection stage is especially significant here for several reasons. Large number of features means a low signal to noise ratio, tampering the classifier performance, large number of features, compared to the relatively small number of samples, means that spurious features might exists. These are features that give good classification on the experiment data by chance, causing the classifier to be over-fitted to the learning set and have low prediction ability, and finally—a small number of features is important for practical application of the signature.
The initial features selection process is done by performing Mann-Whitney (Wilcoxon) rank-sum test on the data, considering only probesets whose overall normalized expression mean is over 25, to avoid working at noise-level. […]
The qRT-PCR data was used to construct the optimal Random-Forest classifier for Day-5 (Table 13) and Day-1 (Table 16). The optimal performance of the Day-5 signatures, as measured by cross validation is—Accuracy of 94% and LOR of 5.6. […]

[3] = 5-day treatment, compared with controls
[4] = day1, kidney of individual male/female rats
[5] = day5, kidney of individual male/female rats
[6] = day28, kidney of individual male/female rats

[Cl][Cd][Cl] [Cadmium chloride]
Autopsy findings ([1]; 5-day treatment): No effect
Body weight gain ([1]; 5-day treatment): Body weight gain decreased in both sexes; also recorded: Decreased body weight gain was recorded in males
Clinical pathology ([1]; 5-day treatment): Slightly increased Gamma GT values were recorded in females; also recorded: ♀: ↑ γGT
Clinical symptoms ([1]; 5-day treatment): mild clinical symptoms (hollow psoas, colic) immediately after the administration
Histopathology / renal damage ([1]; 5-day treatment): No renal damage was found
Organ weight [1, 3]: Lower thymus weights
Water consumption [1, 3]: Decrease in Tobramycin and Cadmium chloride treated females
Body weight and body weight gain ([1]; 28-day treatment): affected body weight gain in both sexes; also recorded: Effect on body weight and body weight gain was seen
Clinical symptoms ([1]; 28-day treatment): Mild clinical symptoms (hollow psoas, colic) were recorded in both sexes; also recorded: Clinical symptoms were observed
Histopathology / nephrotoxicity ([1]; 28-day treatment): significant nephrotoxicity was found only in a single female; also recorded: ♂: lymphoid depletion
Water consumption ([1]; 28-day treatment): Slightly lower water consumption was recorded in males
Clinical pathology ([1]; 28-day treatment, blood and urine): AST (Aspartate Aminotransferase) values were elevated in both sexes; also recorded: A few transitional epithelial cells were observed in the urine of females; also recorded: ♀: trans. epith
Water consumption, males ([1]; 28-day treatment, compared with controls): Sight decrease during the last week
Decreasing order of nephrotoxicity at histopathological examination ([1]; 28-day treatment, females): Cisplatin, Cadmium chloride, Gentamycin, Doxorubicin and Tobramycin in females
Autopsy findings ([1]; 28-day treatment, male and female rats): Round bordered spleen and liver and thickening of peritoneum were recorded in both sexes; also recorded: Pale and enlarged kidneys were found in a single female; also recorded: Round bordered liver, enlarged spleen and thickening of the peritoneum were found in both sexes
Organ weight ([1]; 28-day treatment, male and female rats, compared with controls): higher liver and spleen weight; also recorded: increased weight of kidneys and decreased thymus were recorded in females; also recorded: Increased liver weights in groups of both sexes; also recorded: Higher weights of kidneys in females; also recorded: Weights of spleen were higher in Gentamycin treated males and Cadmium chloride treated groups of both sexes; also recorded: Decreased thymus weights
Clinical symptoms ([1]; single and 5-day treatment): Clinical symptoms were observed only in Cadmium chloride groups of both sexes
Body weight gain ([1]; single treatment): Decreased body weight gain was recorded in both sexes
Clinical pathology ([1]; single treatment): Lower lymphocytes and increased neutrophils counts were found in males
Clinical symptoms ([1]; single treatment): Mild clinical symptoms (hollow psoas, colic) were observed in both sexes
H31883_DB71_seg13 normalized qRT-PCR result ([2]; day1, female rat kidney): 1.194 and 1.772 and 1.894
MUSCYCG1R_DB81_seg19-20 normalized qRT-PCR result ([2]; day1, female rat kidney): 1.133 and 1.64 and 1.263
W41270_DB81_seg11 normalized qRT-PCR result ([2]; day1, female rat kidney): 1.059 and 1.155 and 1.372
H31883_DB71_seg13 normalized qRT-PCR result ([2]; day1, male rat kidney): 1.034 and 1.027 and 0.957
MUSCYCG1R_DB81_seg19-20 normalized qRT-PCR result ([2]; day1, male rat kidney): 0.951 and 1.108 and 1.069
W41270_DB81_seg11 normalized qRT-PCR result ([2]; day1, male rat kidney): 1.499 and 1.622 and 1.512
H31883_DB71_seg13 normalized qRT-PCR result ([2]; day5, female rat kidney): 1.782 and 0.906
MUSCYCG1R_DB81_seg19-20 normalized qRT-PCR result ([2]; day5, female rat kidney): 1.866 and 0.805
W41270_DB81_seg11 normalized qRT-PCR result ([2]; day5, female rat kidney): 2.282 and 0.854
H31883_DB71_seg13 normalized qRT-PCR result ([2]; day5, male rat kidney): 1.104 and 1.157 and 1.671
MUSCYCG1R_DB81_seg19-20 normalized qRT-PCR result ([2]; day5, male rat kidney): 1.083 and 1.409 and 2.393
W41270_DB81_seg11 normalized qRT-PCR result ([2]; day5, male rat kidney): 1.337 and 1.662 and 1.675
H31883_DB71_seg13 normalized qRT-PCR result ([2]; day28, female rat kidney): 0.259 and 0.783 and 1.033
MUSCYCG1R_DB81_seg19-20 normalized qRT-PCR result ([2]; day28, female rat kidney): 0.728 and 0.975 and 1.58
W41270_DB81_seg11 normalized qRT-PCR result ([2]; day28, female rat kidney): 0.414 and 0.827 and 1.098
H31883_DB71_seg13 normalized qRT-PCR result ([2]; day28, male rat kidney): 0.531 and 0.817 and 0.633
MUSCYCG1R_DB81_seg19-20 normalized qRT-PCR result ([2]; day28, male rat kidney): 0.672 and 0.836 and 0.333
W41270_DB81_seg11 normalized qRT-PCR result ([2]; day28, male rat kidney): 0.781 and 1.107 and 0.807
H31883_DB71_seg13 normalized qRT-PCR expression (Cyclin-G1 (CCNG1) transcript) [2, 4]: 0.919 and 1.005 and 1.446 and 1.239 and 1.632 and 1.143
MUSCYCG1R_DB81_seg19-20 normalized qRT-PCR expression [2, 4]: 1.224 and 1.097 and 2.129 and 2.276 and 1.856 and 3.981
W41270_DB81_seg11 normalized qRT-PCR expression (tumor necrosis factor receptor superfamily, member 12a transcript) [2, 4]: 0.727 and 1.183 and 1.265 and 0.993 and 0.983 and 1
H31883_DB71_seg13 normalized qRT-PCR expression (Cyclin-G1 (CCNG1) transcript) [2, 5]: 1.057 and 1.154 and 0.786 and 1.132 and 1.051
MUSCYCG1R_DB81_seg19-20 normalized qRT-PCR expression [2, 5]: 1.036 and 2.018 and 1.292 and 3.613 and 2.866
W41270_DB81_seg11 normalized qRT-PCR expression (tumor necrosis factor receptor superfamily, member 12a transcript) [2, 5]: 1.067 and 2.101 and 1.109 and 0.769 and 1.211
H31883_DB71_seg13 normalized qRT-PCR expression (Cyclin-G1 (CCNG1) transcript) [2, 6]: 0.785 and 0.652 and 0.712 and 0.681 and 0.849 and 0.578
MUSCYCG1R_DB81_seg19-20 normalized qRT-PCR expression [2, 6]: 0.769 and 1.356 and 1.068 and 0.68 and 2.128 and 0.932
W41270_DB81_seg11 normalized qRT-PCR expression (tumor necrosis factor receptor superfamily, member 12a transcript) [2, 6]: 1.138 and 0.529 and 0.772 and 0.578 and 0.654 and 0.522
Samples classified correctly as toxic by the optimal Day-5 classifier (kidney tissues): 5 out of 6
